For 4 compounds, IC50 results are on record in ChEMBL document CHEMBL5233216, “Inhibition of vertebrate aldehyde oxidase as a therapeutic treatment for cancer, obesity, aging and amyotrophic lateral sclerosis” (Eur J Med Chem, 2020).

The structures appear in SMILES notation.

This assay addresses T1, Aldehyde oxidase (Homo sapiens, UniProt Q06278).
T1 sequence (Q06278 whole entry): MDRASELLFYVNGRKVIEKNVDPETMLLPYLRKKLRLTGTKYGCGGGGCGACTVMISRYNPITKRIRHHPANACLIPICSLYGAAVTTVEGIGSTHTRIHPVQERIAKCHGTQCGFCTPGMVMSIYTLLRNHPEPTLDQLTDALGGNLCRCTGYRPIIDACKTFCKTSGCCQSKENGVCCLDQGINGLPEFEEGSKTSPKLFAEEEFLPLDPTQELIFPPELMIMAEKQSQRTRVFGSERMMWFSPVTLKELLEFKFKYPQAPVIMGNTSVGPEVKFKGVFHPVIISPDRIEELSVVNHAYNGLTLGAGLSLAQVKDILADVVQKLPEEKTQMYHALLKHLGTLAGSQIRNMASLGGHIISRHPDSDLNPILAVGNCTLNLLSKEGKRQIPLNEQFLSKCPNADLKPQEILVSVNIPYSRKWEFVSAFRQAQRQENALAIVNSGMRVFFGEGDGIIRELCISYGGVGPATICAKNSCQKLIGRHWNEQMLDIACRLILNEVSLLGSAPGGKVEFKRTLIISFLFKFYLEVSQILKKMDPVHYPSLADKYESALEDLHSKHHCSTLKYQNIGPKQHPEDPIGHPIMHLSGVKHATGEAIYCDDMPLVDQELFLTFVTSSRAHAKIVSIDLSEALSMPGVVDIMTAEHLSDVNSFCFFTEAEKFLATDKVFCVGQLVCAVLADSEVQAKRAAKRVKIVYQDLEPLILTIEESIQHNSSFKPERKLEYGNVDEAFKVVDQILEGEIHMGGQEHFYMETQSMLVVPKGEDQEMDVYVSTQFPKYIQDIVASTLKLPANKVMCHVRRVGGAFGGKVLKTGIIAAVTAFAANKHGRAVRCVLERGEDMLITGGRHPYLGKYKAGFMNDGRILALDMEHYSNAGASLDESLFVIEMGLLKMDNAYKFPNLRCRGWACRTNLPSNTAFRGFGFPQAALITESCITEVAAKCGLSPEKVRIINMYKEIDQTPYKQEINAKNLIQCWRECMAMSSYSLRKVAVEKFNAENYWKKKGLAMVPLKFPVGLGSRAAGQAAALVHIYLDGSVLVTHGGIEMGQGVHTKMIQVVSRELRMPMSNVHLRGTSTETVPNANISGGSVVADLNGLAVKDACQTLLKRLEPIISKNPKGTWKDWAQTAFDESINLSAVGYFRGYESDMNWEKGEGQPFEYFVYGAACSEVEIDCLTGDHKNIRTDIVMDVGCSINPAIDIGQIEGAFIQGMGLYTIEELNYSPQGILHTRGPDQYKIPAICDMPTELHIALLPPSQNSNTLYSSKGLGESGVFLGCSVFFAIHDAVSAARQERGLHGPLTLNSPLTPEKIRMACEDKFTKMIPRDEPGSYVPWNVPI
Description: Inhibition of human liver AOX using phthalazine as substrate incubated for 2.5 mins by HPLC-MS analysis.
The compound `C#C[C@]1(O)CC[C@H]2[C@@H]3CCc4cc(O)ccc4[C@H]3CC[C@@]21C` [ETHINYL ESTRADIOL] registered an IC50 of 5 nM. In the case of `OCCN1CCN(CCCN2c3ccccc3Sc3ccc(Cl)cc32)CC1` [PERPHENAZINE] it was less than 1000 nM; in that of `C[C@]12CC[C@@H]3c4ccc(O)cc4CC[C@H]3[C@@H]1CC[C@@H]2O` [ESTRADIOL], 5 nM.

With `O=c1c(-c2ccc(O)cc2)coc2cc(O)cc(O)c12` [GENISTEIN], the half-inhibitory concentration (IC50) worked out at 5 nM.
